According to patent publication US20240252677A1, “ONE-COMPONENT DELIVERY SYSTEM FOR NUCLEIC ACIDS” (The Trustees of the University of Pennsylvania, priority 2021, published 2024):

What was measured:
[1] = Stability of DNPs by DLS after storage at 5° C.; type: physicochemical; parameters: key: Excellent: the original sizes and distribution types remained almost the same after storage; Good: the original sizes and distribution types changed slightly (size difference was less than 100 nm) or the original size remained almost the same but the DLS curve showed more size distributions after storage
Description: The stability of the DNPs as assayed by DLS. All the samples are prepared in acetate buffer. The stabilities of the constructs were ranked: Excellent (in bold)—the original sizes and distribution remains almost the same after storage; Good—the original relatively big sizes became smaller or broad size distribution became narrower; Not stable—the original relatively big sizes or broad size distribution remained almost the similar level, or the original relatively small sizes became bigger or narrow size distribution became broader.

lung = test: In vivo mRNA delivery, IVIS imaging of organs: lung; parameters: species or system mice; key to Organs with luminescence: lung: strong: Strong meant the luminescence intensity in that organ was relatively high, compared to other organs; weak: Weak meant the luminescence intensity in that organ was relatively low, compared to other organs; settings: Table 17; mice, IVIS, 4-6 h after injection; intensity relative to other organs
HEK293T cells = test: In vitro Luc-mRNA transfection, luciferase luminescence expression in HEK293T cells; type: cell-based, human; parameters: unit not given here; settings: Table 16; HEK 293T cells, 125 ng/well, n=3
Outline: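 HEK293T cells were transfected with nucleoside-modified firefly luciferase mRNA at 125 ng/well delivered in the test particles. TransIT and MC3-based LNPs at equal mRNA dose served as comparators. After 24 h (18-20 h in some runs) at 37° C the cells were lysed, and luciferase luminescence was read on a luminometer, in triplicate.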

BALB/c mice = test: In vivo mRNA delivery in mice with DNPs, whole-body bioluminescence imaging (IVIS)
Description: The exposure time was 1 min.
Luminescence characterization for in vivo transfection experiments employed bioluminescence imaging with an IVIS Spectrum imaging system (PerkinElmer, Waltham, MA). Mice were anesthetized with 3% of isoflurane (Piramal Healthcare Limited) and intraperitoneally (i.p.) administered with D-luciferin (Regis Technologies) at a dose of 150 mg/kg of body weight. Ten minutes post administration of D-luciferin, mice were placed on the imaging platform while being maintained on isoflurane via a nose cone and imaged using an exposure time of 60 seconds. […] To quantify luminescent flux, an oval ROI was placed over each organ of interest and analyzed.
Tissue luminescence signal was measured on the IVIS imaging system using an exposure time of 60 seconds using medium binning (binning=8) to ensure that the signal obtained was within operative detection range. […] Bioluminescence imaging was performed as described above.
Luminescence Characterization for In Vivo Transfection Experiments: bioluminescence imaging was performed with an IVIS Spectrum imaging system (PerkinElmer, Waltham, MA).

[2] = Table 20, nonsymmetric IAJDs and MC3-Luc-mRNA

| Structure (SMILES) | Ranking of stability ([1]; after 70 days at 5° C.) | Organs with luminescence: lung (lung) | Luminescence (HEK293T cells) | In vivo activity (total flux, p/s) (BALB/c mice; Table 19, nonsymmetric IAJDs) | In vivo activity (total flux, p/s) (BALB/c mice; [2]) | Ranking of stability ([1]; after 62 days at 5° C.) | Ranking of stability ([1]; after 27 days at 5° C.) | Ranking of stability ([1]; after 35 days at 5° C.) |
| --- | --- | --- | --- | --- | --- | --- | --- | --- |
| CCCCCCCCCCCCCCCCCCOc1cc(COC(=O)CCCN2CCN(CCO)CC2)cc(OCCCCCCCCCCC)c1 [IAJD 128, 3-(Octadecyloxy)-5-(undecyloxy)benzyl 4-(4-(2-hydroxyethyl)piperazin-1-yl)butanoate] | Excellent | Lung (weak), | 449,311 | 5.53 × 10^7 p/s | 5.53 × 10^7 p/s | – | – | – |
| CCCCCCCCCCCOc1cc(COC(=O)CCCN2CCN(CCO)CC2)cc(OCC(CC)CCCC)c1 (stereo not drawn) [IAJD 130, 3-((2-Ethylhexyl)oxy)-5-(undecyloxy)benzyl 4-(4-(2-hydroxyethyl)piperazin-1-yl)butanoate] | – | Lung (weak), | 76,345 | 1.18 × 10^8 p/s | 1.18 × 10^8 p/s | Excellent | – | – |
| CCCCCCCCCCCCCCCOc1cc(COC(=O)CCCN2CCN(C)CC2)cc(OCC(CC)CCCC)c1 (stereo not drawn) [IAJD 135, 3-((2-Ethylhexyl)oxy)-5-(pentadecyloxy)benzyl 4-(4-methylpiperazin-1-yl)butanoate] | – | Lung (weak), | 432 | 1.22 × 10^7 p/s | – | – | Excellent | – |
| CCCCCCCCCCCCCCCOc1cc(COC(=O)CCCN2CCN(CCO)CC2)cc(OCC(CC)CCCC)c1 (stereo not drawn) [IAJD 136, 3-((2-Ethylhexyl)oxy)-5-(pentadecyloxy)benzyl 4-(4-(2-hydroxyethyl)piperazin-1-yl)butanoate] | – | Lung (weak), | 283,656 | 1.04 × 10^7 p/s | – | – | Excellent | – |
| CCCCCCCCCCCCCCCOc1cc(COC(=O)CCCN2CCN(CCO)CC2)cc(OCCCCCCCC)c1 [IAJD 138, 3-(Octyloxy)-5-(pentadecyloxy)benzyl 4-(4-(2-hydroxyethyl)piperazin-1-yl)butanoate] | – | Lung (weak), | 102,620 | 1.49 × 10^7 p/s | – | – | – | Good |
| CCCCCCCCCCCCCCCOc1cc(COC(=O)CCCN2CCN(C)CC2)cc(OCCCCCCCCCC)c1 [IAJD 141, 3-(Decyloxy)-5-(pentadecyloxy)benzyl 4-(4-methylpiperazin-1-yl)butanoate] | – | Lung (weak), | 140,589 | 2.06 × 10^7 p/s | – | – | Excellent | – |
| CCCCCCCCCCCCCCCOc1cc(COC(=O)CCCN2CCN(CCO)CC2)cc(OCCCCCCCCCC)c1 [IAJD 142, 3-(Decyloxy)-5-(pentadecyloxy)benzyl 4-(4-(2-hydroxyethyl)piperazin-1-yl)butanoate] | – | Lung (weak), | 463,750 | 2.51 × 10^7 p/s | – | – | Excellent | – |
| CCCCCCCCCCCCCCCOc1cc(COC(=O)CCCN2CCN(C)CC2)cc(OCCCCCCCCCCCC)c1 [IAJD 143, 3-(Dodecyloxy)-5-(pentadecyloxy)benzyl 4-(4-methylpiperazin-1-yl)butanoate] | – | Lung (strong), | 71,851 | 1.28 × 10^7 p/s | – | – | Excellent | – |
| CCCCCCCCCCCCCCCOc1cc(COC(=O)CCCN2CCN(CCO)CC2)cc(OCCCCCCCCCCCC)c1 [IAJD 144, 3-(Dodecyloxy)-5-(pentadecyloxy)benzyl 4-(4-(2-hydroxyethyl)piperazin-1-yl)butanoate] | – | Lung (weak), | 253,672 | 1.39 × 10^7 p/s | – | – | Excellent | – |
| CCCCCCCCCCCCCCCOc1cc(COC(=O)CCCN2CCN(C)CC2)cc(OCCCCCCCCCCCCC)c1 [IAJD 145, 3-(pentadecyloxy)-5-(tridecyloxy)benzyl 4-(4-methylpiperazin-1-yl)butanoate] | – | Lung (strong), | 296 | 9.25 × 10^6 p/s | – | – | Excellent | – |
